pIC50: −log10 of the molar value.
Legend:
[1] = biological target: serotonin transporter (Mus musculus); experiment: In vitro inhibition of accumulation of [14C]5-HT (5-HT) in mouse brain slices
[2] = biological target: norepinephrine transporter (Mus musculus); experiment: In vitro inhibition of accumulation of (-)-[3H]Norepinephrine (NA) in mouse brain slices

Compound	pIC50 [1]	pIC50 [2]
CN(C)C/C=C(/c1ccccc1)c1cccnc1 [cis -Dimethyl-(3-phenyl-3-pyridin-3-yl-allyl)-amine;1.5C2H4O4]	5.43	4.57
Cc1ccc(/C(=C/CN(C)C)c2cccnc2)cc1 [cis -Dimethyl-(3-pyridin-3-yl-3-p-tolyl-allyl)-amine;C2H4O4]	5.62	< 4.54
CN(C)C/C=C(/c1ccc(C(F)(F)F)cc1)c1cccnc1 [cis -Dimethyl-[3-pyridin-3-yl-3-(4-trifluoromethyl-phenyl)-allyl]-amine;C2H4O4]	5.70	4.89
CNC/C=C(\c1cccnc1)c1ccc(Cl)cc1Cl [cis-[3-(2,4-Dichloro-phenyl)-3-pyridin-3-yl-allyl]-methyl-amine;C2H4O4]	6.30	5.64
CN(C)C/C=C(\c1cccnc1)c1ccccc1Br [cis-[3-(2-Bromo-phenyl)-3-pyridin-3-yl-allyl]-dimethyl-amine;C2H4O4]	5.38	5.66
CNC/C=C(\c1cccnc1)c1ccccc1Br [cis-[3-(2-Bromo-phenyl)-3-pyridin-3-yl-allyl]-methyl-amine;C2H4O4]	6.22	6.52
CNC/C=C(\c1cccnc1)c1cccc(Br)c1 [cis-[3-(3-Bromo-phenyl)-3-pyridin-3-yl-allyl]-methyl-amine;C2H4O4]	5.85	6.05
CN(C)C/C=C(\c1cccnc1)c1cccc(Cl)c1 [cis-[3-(3-Chloro-phenyl)-3-pyridin-3-yl-allyl]-dimethyl-amine;C2H4O4]	5.59	4.96
CN(C)C/C=C(\c1cccnc1)c1cccc(F)c1 [cis-[3-(3-Fluoro-phenyl)-3-pyridin-3-yl-allyl]-dimethyl-amine;C2H4O4]	5.80	5.66
CCNC/C=C(/c1ccc(Br)cc1)c1cccnc1 [cis-[3-(4-Bromo-phenyl)-3-pyridin-3-yl-allyl]-ethyl-amine;C2H4O4]	5.70	4.59
CCCNC/C=C(/c1ccc(Br)cc1)c1cccnc1 [cis-[3-(4-Bromo-phenyl)-3-pyridin-3-yl-allyl]-propyl-amine;C2H4O4]	4.62	< 4.62
CN(C)C/C=C(/c1ccc(Cl)cc1)c1cccnc1 [cis-[3-(4-Chloro-phenyl)-3-pyridin-3-yl-allyl]-dimethyl-amine;C2H4O4]	5.68	5.00
CN(C)C/C=C(/c1ccc(I)cc1)c1cccnc1 [cis-[3-(4-Iodo-phenyl)-3-pyridin-3-yl-allyl]-dimethyl-amine;C2H4O4]	6.00	< 4.66
CC(C)Oc1ccc(/C(=C/CN(C)C)c2ccncc2)cc1 [cis-[3-(4-Isopropoxy-phenyl)-3-pyridin-4-yl-allyl]-dimethyl-amine;C2H4O4]	5.46	4.47
COc1ccc(/C(=C/CN(C)C)c2cccnc2)cc1 [cis-[3-(4-Methoxy-phenyl)-3-pyridin-3-yl-allyl]-dimethyl-amine;C2H4O4]	6.10	< 4.55
